Test results: patent publication US20070248672A1, “Indole and Azaindole Derivatives with Antitumor Action” (priority 2004, published 2007)
Structures can show the parent of a compound that is named as a salt. Where two headings read alike, the source gives them in different places.

Assays:
[1] = target: Vacuolar ATPase in human osteoclastoma (hOc) (Homo sapiens, UniProt P27449+Q13488); test: Vacuolar ATPase inhibition in human osteoclastoma (hOc) microsomal fraction; assay type: biochemical; conditions: 30 min, 37° C.
Experimental: 1.1 Determination of Vacuolar ATpase Inhibition in Human Osteoclastoma (hOc)
Osteoclast-like giant cells isolated from human osteoclastoma are homogenized using a glass-teflon homogeniser (1000 rpm) and the material is centrifuged for 20 minutes at 6000 g. The resultant pellet is resuspended and centrifuged at 100000 g for 60 minutes to sediment the microsomal fraction. The resultant pellet is resuspended in medium at pH 7.4 and stored under liquid nitrogen.
(§1) Inhibition of bafilomycin sensitive ATPase activity is assayed by measuring the release of inorganic phosphate during 30 minutes of incubation, at 37° C., of the human osteoclastoma microsomal fraction in 96-well plates. The reaction medium contains 1 mM ATP, 10 mM Hepes-Tris buffer pH 8, 50 mM KCl, 5 μM valinomycin, 5 μM nigericin, 1 mM CDTA-Tris, 100 μM ammonium molybdate, 0.2 M sucrose and the microsomal fraction (20 μg protein/ml). The reaction is initiated by adding MgSO4 and terminated, after 30 minutes, by adding 4 volumes of the reagent malachite green, prepared according to Chan K., Anal. Biochem. 157, 375-380, 1986.

HT29 cells [2] = test: Antiproliferative activity, 72 h treatment, SRB assay, HT29; assay type: cell-based, human
Experimental: (§2) HT29 and HT29/Mit (line obtained by prolonged exposure to mitoxantrone, and characterised by overexpression of BCRP, which confers cross resistance to topotecan, irinotecan and to its metabolite SN38): maintained in McCoy 5A medium+10% FCS.
(§3) 2.2 Scheme of the Antiproliferative Activity Experiment (Treatment Time: 72 Hours)
(§4) The cells (HT29 and HT29/Mit: 40,000 cells/ml, LoVo, LoVo/Dx and HCT116: 50,000 cells/ml) are seeded in 100 μl of the respective culture media in 96-well plates. 24 hours after seeding, an aliquot (10 μl) of drug at the various concentrations is added. In the samples in which the effect of the combination of two compounds is to be tested the inhibitor is added immediately before the cytotoxic. For each dose or combination of doses/drugs the effect of the treatment is determined in 4-8 replicates.
(§5) After 72 hours of treatment the antiproliferative effect is evaluated using the sulforhodamine B (SRB) assay: the cells are fixed by adding 25 μl of 50% TCA to each well and left for 1 hour at 4° C. After washing them with water and allowing them to dry, 100 μl of 0.4% SRB in 1% acetic acid are added and left for 30 minutes at room temperature. After 4 washes in 1% acetic acid, they are left to dry then the dye fixed by the proteins is dissolved under basic conditions with 100 μl 10 mM cold Tris and the solution is read using a spectrophotometer at 550 nm.
(§6) Percentage cell growth is calculated as the optical density of treated samples compared to the optical density of controls (untreated cells).

HT29/Mit cells [3] = test: Antiproliferative activity, 72 h treatment, SRB assay, HT29/Mit resistant line; assay type: cell-based, human
Experimental: as §2, §3, §4, §5, §6

HepG2 cells = test: Antiproliferative activity, 48 h treatment, ATPlite luminescence assay, HepG2; assay type: cell-based, human; conditions: HepG2, 48 h treatment, read-out: Antiproliferative activity (IC50 ± S.D.) HepG2 48 h treatment
Experimental: HepG2: maintained in EMEM medium+10% FCS.
2.3 Scheme of the Antiproliferative Activity Experiment (Treatment Time: 48 Hours)
The cells (concentration: 30,000 cells/ml) are seeded in 90 μl of the respective culture media in 96-well plates. 24 hours after seeding, an aliquot (10 μl) of the drug at the various concentrations is added (for each concentration there are 3 replicates). After 48 hours of treatment the antiproliferative effect is evaluated with a luminescence assay (Perkin Elmer Life Sciences ATPlite):
50 μl of a lysis solution are added to each well followed by an equal volume of a solution containing luciferase and D-luciferin. The ATP present in all the metabolically active cells brings about the transformation reaction of D-luciferin, catalysed by luciferase, to produce a luminescent signal as described in the following scheme: ATP+D-luciferin+O2→Oxyluciferin+AMP+PP1+CO2+Light
The luminescence produced (expressed in counts per second, CPS) is measured by means of a microplate scintillation analyzer (Perkin Elmer Life Sciences Top Count).
Percentage inhibition of luminescence in the treated cells compared to the control is calculated; concentration-response curves are then analysed using Grafit v.5.0.

[4] = target: Vacuolar ATPase in bovine chromaffin cells membranes (BCG) (Bos taurus, UniProt P23956+Q29466); test: Vacuolar ATPase inhibition in bovine chromaffin cells membranes (BCG); assay type: biochemical; conditions: read-out: ATPase activity (IC50) BCG; bovine chromaffin cell membranes
Experimental: as §1
1.2 Determination of Vacuolar ATpase Inhibition in the Bovine Chromaffin Cells Membranes (BCG)
About 20 adrenal glands (Cidon S., J. Biol. Chem. 258, 2892-2898, 1983) are removed from healthy bovines; the medulla is quickly separated from the cortex, which is discarded. The medulla is homogenised at 4° C. with a suitable medium at pH 7.5, then filtered. The remaining solid material is further homogenised, filtered and recombined with the preceding filtrate, resuspended and centrifuged at 1000 g for 15 minutes; the supernatant obtained is centrifuged at 10000 g for 20 minutes. The resultant pellet is resuspended and stratified through a sucrose gradient formed of a lower part of 15 ml 1.5 M sucrose and an upper part of 10 ml 1.2 M sucrose. After overnight centrifugation at 4° C. with a SW28 rotor at 20000 rpm, the chromaffiln cells sediment into a pellet. This latter is resuspended, centrifuged at 3000 g for 10 minutes, and the supernatant obtained is centrifuged at 200000 g for 60 minutes. The pellet is then resuspended in 4 ml of a suitable medium containing 0.2 μg/ml pepstatin A and 0.4 μg/ml leupeptin and stored under liquid nitrogen.
The method for ATPase inhibition assay is the same as that followed for the osteoclastoma.

HT29 cells [5] = test: Co-treatment with topotecan, HT29 cells (Combination Index according to Kern); assay type: cell-based, human; conditions: HT29 cells
Experimental: as §4, §5, §6
(§7) The Combination Index (C.I.) was determined according to Kern's method, 1988 (who continued from Drewinko B, 1976) (Kem D. H., Cancer Res. 48, 117-121, 1988; Drewinko B., Cancer Biochem. Biophys. 1, 187-195, 1976) by means of the following formula: […], where SFa and SFb are the fractions of cells surviving to treatment with compound a and b, respectively; SFab is the fraction surviving to the combination of compounds a and b. If the result is =1, the interaction between the two compounds is additive; if it is >1, the interaction between the two compounds is synergistic; if it is <1, the interaction between the two compounds is antagonistic.

HT29/Mit cells [6] = test: Co-treatment with topotecan, HT29/Mit resistant cells (Combination Index according to Kern); assay type: cell-based, human; conditions: HT29/Mit cells
Experimental: as §4, §5, §6, §7

[7] = system: HT29/Mit human colon carcinoma xenografts; test: HT29/Mit human colon carcinoma xenograft, antitumor activity; assay type: in vivo, athymic Swiss nude mice
Excerpt: 1.1 Model of HT29/Mit human colon carcinoma xenografts-Antitumor activity Female athymic Swiss nude mice (8-10 weeks old) (Charles River, Calco, Italy) were used for the experiments. The animals were maintained at constant temperature and humidity, and were allowed to eat and drink freely. The experimental protocol was approved by the Ethics Committee for Animal Experimentation of the Istituto Nazionale Tumori of Milan. The antitumour effectiveness of the compounds of the invention under discussion was tested on athymic mouse models implanted with HT29 and/or HT29/Mit tumour cells: this latter variety is highly resistant to topotecan treatment. The tumour cells were implanted in vivo via subcutaneous injection of 10^7 cells taken from in vitro cultures. Randomized groups of five mice with bilateral subcutaneous tumours were used for the experiment. Topotecan or other known antitumour agents (dissolved in distilled water or an appropriate solvent) and the compounds of the invention (dissolved in Cremophor EL: ethanol: saline solution in the proportions 5:5:90, or in an appropriate solvent) were administered orally from the third day, alone or in combination, in agreement with a treatment scheme selected in an appropriate manner depending on the type of compound to be studied. The weight (or volume) of the tumour in treated mice compared to controls is represented graphically on the y-axis against time (x-axis).

[8] = HT-29, 72 h treatment, read-out: Antiproliferative activity (IC50 ± S.D.) HT-29 72 h treatment
[9] = Homo sapiens, HT-29, 72 h treatment, read-out: Antiproliferative activity (IC50 ± S.D.) HT-29 72 h treatment
[10] = Homo sapiens, HT-29/Mit resistant line, 72 h treatment, read-out: Antiproliferative activity (IC50 ± S.D.) HT-29/Mit
[11] = Homo sapiens, HT-29, HT29, after 72 hours of treatment, range stated for the group, read-out: IC50 values in the sensitive line
[12] = Homo sapiens, HT-29, HT29/Mit, after 72 hours of treatment, range stated for the group, read-out: IC50 values in the resistant line

Chain of Vacuolar ATPase in bovine chromaffin cells membranes (BCG) (P23956 whole entry, looked up): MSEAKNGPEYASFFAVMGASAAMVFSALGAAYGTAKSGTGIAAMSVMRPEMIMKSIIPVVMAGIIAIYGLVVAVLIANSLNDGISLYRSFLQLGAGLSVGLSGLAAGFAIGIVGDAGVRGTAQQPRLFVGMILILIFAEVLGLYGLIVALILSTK
Chain of Vacuolar ATPase in bovine chromaffin cells membranes (BCG) (Q29466 whole entry, looked up): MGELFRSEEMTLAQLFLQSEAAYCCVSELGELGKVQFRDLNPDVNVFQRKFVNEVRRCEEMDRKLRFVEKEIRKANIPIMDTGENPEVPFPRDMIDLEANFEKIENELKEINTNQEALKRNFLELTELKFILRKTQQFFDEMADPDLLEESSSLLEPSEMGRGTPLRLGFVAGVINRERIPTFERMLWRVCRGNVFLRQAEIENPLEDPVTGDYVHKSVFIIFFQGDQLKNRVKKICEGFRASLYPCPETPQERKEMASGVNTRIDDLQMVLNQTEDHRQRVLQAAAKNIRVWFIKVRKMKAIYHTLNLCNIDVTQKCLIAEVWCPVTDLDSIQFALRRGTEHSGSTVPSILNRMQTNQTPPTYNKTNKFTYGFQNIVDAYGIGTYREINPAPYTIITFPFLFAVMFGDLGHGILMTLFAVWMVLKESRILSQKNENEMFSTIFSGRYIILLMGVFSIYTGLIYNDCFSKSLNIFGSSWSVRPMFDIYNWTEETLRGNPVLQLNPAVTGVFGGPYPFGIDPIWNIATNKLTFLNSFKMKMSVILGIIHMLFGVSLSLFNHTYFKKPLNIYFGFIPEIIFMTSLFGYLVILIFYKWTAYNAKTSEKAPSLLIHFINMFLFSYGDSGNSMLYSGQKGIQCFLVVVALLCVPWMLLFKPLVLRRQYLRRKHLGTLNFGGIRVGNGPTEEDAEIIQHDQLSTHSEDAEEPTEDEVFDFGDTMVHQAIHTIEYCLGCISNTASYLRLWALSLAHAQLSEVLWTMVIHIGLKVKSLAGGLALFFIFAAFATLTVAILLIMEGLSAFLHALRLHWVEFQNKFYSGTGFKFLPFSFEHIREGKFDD
Chain of Vacuolar ATPase in human osteoclastoma (hOc) (P27449 whole entry, looked up): as the sequence (P23956 whole entry, looked up) above, with A4S, N6S, M51Q, G83D, R88K counted along it
Chain of Vacuolar ATPase in human osteoclastoma (hOc) (Q13488 whole entry, looked up): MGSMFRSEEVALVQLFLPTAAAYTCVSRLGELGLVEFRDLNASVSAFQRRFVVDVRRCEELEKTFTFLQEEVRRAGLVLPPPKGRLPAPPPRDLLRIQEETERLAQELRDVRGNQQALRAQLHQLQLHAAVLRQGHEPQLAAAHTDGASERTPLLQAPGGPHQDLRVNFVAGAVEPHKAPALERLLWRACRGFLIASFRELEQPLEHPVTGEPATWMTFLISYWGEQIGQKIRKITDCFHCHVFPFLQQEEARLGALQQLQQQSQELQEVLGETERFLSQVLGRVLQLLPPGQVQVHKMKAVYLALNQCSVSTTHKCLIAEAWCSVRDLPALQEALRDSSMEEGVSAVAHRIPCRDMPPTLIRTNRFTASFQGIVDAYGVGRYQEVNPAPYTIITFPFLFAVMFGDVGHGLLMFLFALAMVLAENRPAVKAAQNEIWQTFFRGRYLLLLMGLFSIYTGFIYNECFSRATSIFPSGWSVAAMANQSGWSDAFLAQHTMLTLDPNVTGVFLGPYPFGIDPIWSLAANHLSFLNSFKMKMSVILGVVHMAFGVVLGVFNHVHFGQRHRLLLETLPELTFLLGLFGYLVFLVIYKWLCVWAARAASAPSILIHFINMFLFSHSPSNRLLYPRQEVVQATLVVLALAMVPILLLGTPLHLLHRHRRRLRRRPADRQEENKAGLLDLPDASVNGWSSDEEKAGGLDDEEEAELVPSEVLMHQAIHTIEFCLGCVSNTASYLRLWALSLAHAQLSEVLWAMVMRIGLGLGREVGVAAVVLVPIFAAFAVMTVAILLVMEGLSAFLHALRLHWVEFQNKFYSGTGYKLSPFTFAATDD

SMILES | IC50 (HT29 cells [2]; [9]) [nM] | IC50 (HT29/Mit cells [3]; [10]) [nM] | IC50 [4] [nM] | IC50 (HT29 cells [2]; [11]) [nM] | IC50 (HT29/Mit cells [3]; [12]) [nM] | also measured
CO/C1=C\C(C)=C\[C@@H](C)[C@@H](O)[C@@H](C)C/C(C)=C/C=C/[C@H](OC)[C@@H]([C@@H](C)[C@@H](O)[C@H](C)[C@@]2(O)C[C@@H](O)[C@H](C)[C@@H](C(C)C)O2)OC1=O [Bafilomycin A1, reference compound] | – | – | – | – | – | IC50 [1]: 0.1 nM; IC50 (HT29 cells [2]; [8]): 3 ± 2 nM; IC50 (HT29/Mit cells [3]; HT-29/Mit resistant line, 72 h treatment, read-out: Antiproliferative activity (IC50 ± S.D.) HT-29/Mit): 5 nM; IC50 (HepG2 cells): < 6 nM
N.N.[Cl][Pt][Cl] [Cisplatin, reference compound] | – | – | – | – | – | IC50 (HT29 cells [2]; [8]): 6800 nM; IC50 (HepG2 cells): > 25000 nM
COC(=O)c1[nH]c2cc(OC)c(OC)cc2c1-c1ccc(OC)c(OC)c1 [Example 2, -3-(3,4-Dimethoxyphenyl)-5,6-dimethoxy-1H-indole-2-carboxylic acid methyl ester] | 35200 ± 5200 | 15200 ± 300 | – | – | – | IC50 (HepG2 cells; Homo sapiens): 25500 ± 4500 nM
COC(=O)c1[nH]c2cc(OC)c(OC)cc2c1-c1ccccc1 [Example 3, 5,6-Dimethoxy-3-phenyl-1H-indole-2-carboxylic acid methyl ester] | 37300 | 150 | 628 | 5000 to 42000 | 100 to 3000 | –
CCOC(=O)c1[nH]c2cc(OC)c(OC)cc2c1-c1ccccc1 [Example 4, 5,6-Dimethoxy-3-phenyl-1H-indole-2-carboxylic acid ethyl ester] | 37300 | < 100 | 350 | 5000 to 42000 | 100 to 3000 | –
COC(=O)c1c(-c2ccc(OC)cc2)c2cc(OC)c(OC)cc2n1CCO [Example 12, 1-(2-Hydroxyethyl)-5,6-dimethoxy-3-(4-methoxyphenyl)-1H-indole-2-carboxylic acid methyl ester] | 4600 | 660 ± 300 | 247 | 5000 to 42000 | 100 to 3000 | effect in combination with topotecan (HT29 cells [5]): synergistic effects; effect in combination with topotecan (HT29/Mit cells [6]): synergistic effects
COc1ccc(-c2c(C#N)[nH]c3cc(OC)c(OC)cc23)cc1 [Example 17, 5,6-dimethoxy-3-(4-methoxyphenyl)-1H-indole-2-carbonitrile] | 4900 ± 500 | 2500 | 273 | – | – | –
COc1ccc(-c2c(C#N)n(CCN(C)C)c3cc(OC)c(OC)cc23)cc1 [Example 18, 1-(2-Dimethylaminoethyl)-5,6-dimethoxy-3-(4-methoxyphenyl)-1H-indole-2-carbonitrile hydrochloride] | 16700 | 150 | 567 | 5000 to 42000 | 100 to 3000 | –
COc1ccc(-c2c(-c3ncn[nH]3)[nH]c3cc(OC)c(OC)cc23)cc1 [Example 23, 5,6-Dimethoxy-3-(4-methoxyphenyl)-2-(2H-[1,2,4]triazol-3-yl)-1H-indole] | 41900 | 2300 | 470 | 5000 to 42000 | 100 to 3000 | effect in combination with topotecan (HT29 cells [5]): synergistic effects; effect in combination with topotecan (HT29/Mit cells [6]): synergistic effects
COc1ccc(-c2c(-c3nnco3)[nH]c3cc(OC)c(OC)cc23)cc1 [Example 26, 5,6-Dimethoxy-3-(4-methoxyphenyl)-2-[1,3,4]oxadiazol-2-yl-1H-indole] | 40300 | 2700 | 710 | 5000 to 42000 | 100 to 3000 | effect in combination with topotecan (HT29 cells [5]): synergistic effects; effect in combination with topotecan (HT29/Mit cells [6]): synergistic effects
COc1ccc(-c2c3n(c4cc(OC)c(OC)cc24)CCNC3=O)cc1 [Example 27, 7,8-Dimethoxy-10-(4-methoxyphenyl)-3,4-dihydro-2H-pyrazino[1,2-a]indol-1-one] | 5200 | 2900 | 248 | – | – | –
COc1ccc(-c2c3n(c4cc(OC)c(OC)cc24)CCNC3)cc1 [Example 28, 7,8-Dimethoxy-10-(4-methoxyphenyl)-1,2,3,4-tetrahydro-pyrazino[1,2-a]indole hydrochloride] | 37300 | 530 | 1270 | 5000 to 42000 | 100 to 3000 | –
CC[C@@]1(O)C(=O)OCc2c1cc1n(c2=O)Cc2cc3c(CN(C)C)c(O)ccc3nc2-1 [Topotecan, reference compound] | 70 ± 10 | 50600 | – | – | – | tumor growth inhibition ([7]; 1 mg/kg p.o.): 62%; tumor growth inhibition ([7]; 2 mg/kg p.o.): 80%
